Data taken from patent publication US8455475B2 (Gruenenthal GmbH, priority 2009, dated 2013).

Tests used:
[1] = target: T1, human B1R (bradykinin receptor 1) (Homo sapiens, UniProt P46663); assay: FLIPR Ca2+ assay (Fluo-4) on CHO K1 cells stably transfected with the human B1R gene (hB1R cells): % inhibition at 10 μM / IC50, agonist Lys-Des-Arg9-bradykinin; format: cell-based; details: for inhibition at 10 µM: CHO-K1, human B1R
T1 construct: expressed in transfected cells; host or cells: CHO K1 cells
T1 sequence (P46663 1-353): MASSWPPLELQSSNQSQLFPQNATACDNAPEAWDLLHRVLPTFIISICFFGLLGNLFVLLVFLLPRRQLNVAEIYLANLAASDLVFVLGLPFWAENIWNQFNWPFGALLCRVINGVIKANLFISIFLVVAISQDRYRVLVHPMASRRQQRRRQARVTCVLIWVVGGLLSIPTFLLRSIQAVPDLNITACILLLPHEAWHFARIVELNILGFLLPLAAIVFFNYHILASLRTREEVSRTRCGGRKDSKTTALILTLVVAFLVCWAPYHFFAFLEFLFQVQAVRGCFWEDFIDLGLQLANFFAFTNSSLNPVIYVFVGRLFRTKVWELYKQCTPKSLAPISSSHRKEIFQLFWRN
In short: (§1)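 Cells were Fluo-4-loaded, then test compound (10 μM, or a concentration series for IC50) was preincubated 10–20 min before agonist challenge at EC80: Lys-Des-Arg9-bradykinin for hB1R, Des-Arg9-bradykinin for rB1R. Peak Ca2+ fluorescence (ex 488/em 540 nm) gave % inhibition versus maximal achievable inhibition.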

[2] = target: T2, rat B1R (bradykinin receptor 1) (Rattus norvegicus, UniProt P97583); assay: FLIPR Ca2+ assay (Fluo-4) on CHO K1 cells stably transfected with the B1R gene of the rat (rB1R cells): % inhibition at 10 μM / IC50, agonist Des-Arg9-bradykinin; format: cell-based; details: for inhibition at 10 µM: CHO-K1, rat B1R
T2 construct: expressed in transfected cells; host or cells: CHO K1 cells
T2 sequence (P97583 1-337): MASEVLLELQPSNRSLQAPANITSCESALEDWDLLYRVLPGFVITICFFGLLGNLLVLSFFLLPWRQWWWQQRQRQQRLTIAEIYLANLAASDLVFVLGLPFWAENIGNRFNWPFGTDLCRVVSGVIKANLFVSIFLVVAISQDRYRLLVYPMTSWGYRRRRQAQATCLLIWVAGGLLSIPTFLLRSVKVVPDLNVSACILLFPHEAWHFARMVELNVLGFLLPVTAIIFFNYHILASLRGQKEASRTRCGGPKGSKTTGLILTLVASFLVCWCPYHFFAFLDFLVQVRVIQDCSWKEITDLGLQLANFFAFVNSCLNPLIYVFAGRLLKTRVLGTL
In short: as §1

inhibition at 10 µM [1] [%]	inhibition at 10 µM [2] [%]	% Inhibition (human B1R) at 10 μM ([1]; human B1R) [%]	% Inhibition (rat B1R) at 10 μM ([2]; rat B1R, 10 µM) [%]	SMILES
92	106			O=C(NC1CCc2ccc(C(=O)N3CCC4(CC3)CCN(c3ccncc3)C4)cc21)c1cc(Cl)ccc1C(F)(F)F (stereo not shown) [IND_CC-303, 5-Chloro-N-[6-(2-pyridin-4-yl-2,8-diazaspiro[4.5]decane-8-carbonyl)-2,3-dihydro-1H-inden-1-yl]-2-(trifluoromethyl)-benzamide]
49	104			Cc1ccc(C(=O)N(C)C2CCc3ccc(C(=O)N4CCC5(CC4)CCN(c4ccncc4)CC5)cc32)c(F)c1 (stereo not shown) [IND_CC-304, 2-Fluoro-N,4-dimethyl-N-[6-(9-pyridin-4-yl-3,9-diazaspiro[5.5]undecane-3-carbonyl)-2,3-dihydro-1H-inden-1-yl]-benzamide]
67	104			Cc1ccc(C(=O)NC2CCc3ccc(C(=O)N4CCC5(CC4)CCN(c4ccncc4)CC5)cc32)c(F)c1 (stereo not shown) [IND_CC-305, 2-Fluoro-4-methyl-N-[6-(9-pyridin-4-yl-3,9-diazaspiro[5.5]undecane-3-carbonyl)-2,3-dihydro-1H-inden-1-yl]-benzamide]
14	103			Cc1cccc(C)c1C(=O)NC1CCc2ccc(C(=O)N3CCC4(CC3)CCN(c3ccc(C(F)(F)F)cc3)CC4)cc21 (stereo not shown) [IND_CC-307, 2,6-Dimethyl-N-[6-[9-[4-(trifluoromethyl)-phenyl]-3,9-diazaspiro[5.5]undecane-3-carbonyl]-2,3-dihydro-1H-inden-1-yl]-benzamide]
97	106			Cc1cccc(C)c1C(=O)NC1c2cc(C(=O)N3CCC4(CC3)CCN(c3ccncc3)CC4)ccc2CC1(C)C (stereo not shown) [IND_CC-308, N-[2,2-Dimethyl-6-(9-pyridin-4-yl-3,9-diazaspiro[5.5]undecane-3-carbonyl)-1,3-dihydro-inden-1-yl]-2,6-dimethyl-benzamide]
97	104			Cc1cccc(C)c1C(=O)NC1CC(C)(C)c2ccc(C(=O)N3CCC4(CC3)CCN(c3ccncc3)CC4)cc21 (stereo not shown) [IND_CC-309, N-[3,3-Dimethyl-6-(3-pyridin-4-yl-3,9-diazaspiro[5.5]undecane-9-carbonyl)-1,2-dihydro-inden-1-yl]-2,6-dimethyl-benzamide]
100	104			Cc1cccc(C)c1C(=O)NC1CCc2ccc(C(=O)N3CCC4(CCN(c5ccncc5)CC4)C3)cc21 (stereo not shown) [IND_CC-310, 2,6-Dimethyl-N-[6-(8-pyridin-4-yl-2,8-diazaspiro[4.5]decane-2-carbonyl)-2,3-dihydro-1H-inden-1-yl]-benzamide]
44	102			COc1ccc(C(=O)NC2CC(C)(C)c3ccc(C(=O)N4CCC5(CC4)CCN(c4ccncc4)CC5)cc32)c(F)c1 (stereo not shown) [IND_CC-312, N-[3,3-Dimethyl-6-(3-pyridin-4-yl-3,9-diazaspiro[5.5]undecane-9-carbonyl)-1,2-dihydro-inden-1-yl]-2-fluoro-4-methoxy-benzamide]
2	100			O=C(NC1CCc2ccc(C(=O)N3CCC4(CCN(Cc5ccc[nH]5)CC4)CC3)cc21)c1ccccc1Cl (stereo not shown) [IND_CC-507, 2-Chloro-N-[6-[9-(1H-pyrrol-2-yl-methyl)-3,9-diazaspiro[5.5]undecane-3-carbonyl]-2,3-dihydro-1H-inden-1-yl]-benzamide]

Further lines, the compound ahead of its results:

SMILES	inhibition at 10 µM [1] [%]	inhibition at 10 µM [2] [%]	% Inhibition (human B1R) at 10 μM ([1]; human B1R) [%]	% Inhibition (rat B1R) at 10 μM ([2]; rat B1R, 10 µM) [%]
O=C(NC1CCc2ccc(C(=O)N3CCC4(CCN(c5ccncc5)CC4)C3)cc21)c1c(Cl)cccc1Cl (stereo not shown) [IND_CC-289, 2,6-Dichloro-N-[6-(8-pyridin-4-yl-2,8-diazaspiro[4.5]decane-2-carbonyl)-2,3-dihydro-1H-inden-1-yl]-benzamide]	100	104		
O=C(NC1CCc2ccc(C(=O)N3CCC4(CC3)CCN(c3ccc(C(F)(F)F)cc3)CC4)cc21)c1ccccc1Cl (stereo not shown) [IND_CC-290, 2-Chloro-N-[6-[9-[4-(trifluoromethyl)-phenyl]-3,9-diazaspiro[5.5]undecane-3-carbonyl]-2,3-dihydro-1H-inden-1-yl]-benzamide]	35	100		
CC1(C)Cc2ccc(C(=O)N3CCC4(CC3)CCN(c3ccncc3)CC4)cc2C1NC(=O)c1ccccc1Cl (stereo not shown) [IND_CC-291, 2-Chloro-N-[2,2-dimethyl-6-(9-pyridin-4-yl-3,9-diazaspiro[5.5]undecane-3-carbonyl)-1,3-dihydro-inden-1-yl]-benzamide]	98	104		
CC1(C)CC(NC(=O)c2ccccc2Cl)c2cc(C(=O)N3CCC4(CC3)CCN(c3ccncc3)CC4)ccc21 (stereo not shown) [IND_CC-292, 2-Chloro-N-[3,3-dimethyl-6-(3-pyridin-4-yl-3,9-diazaspiro[5.5]undecane-9-carbonyl)-1,2-dihydro-inden-1-yl]-benzamide]	99	105		
O=C(NC1CCc2ccc(C(=O)N3CCC4(CCN(c5ccncc5)CC4)C3)cc21)c1ccccc1Cl (stereo not shown) [IND_CC-293, 2-Chloro-N-[6-(8-pyridin-4-yl-2,8-diazaspiro[4.5]decane-2-carbonyl)-2,3-dihydro-1H-inden-1-yl]-benzamide]			100	106
Cc1cccc(C)c1C(=O)NC1CCc2ccc(C(=O)N3CCC4(CC3)CCN(c3ccncc3)CC4)cc21 (stereo not shown) [IND_CC-294, 2,6-Dimethyl-N-[6-(9-pyridin-4-yl-3,9-diazaspiro[5.5]undecane-3-carbonyl)-2,3-dihydro-1H-inden-1-yl]-benzamide]	99	105		
Cc1cccc(C)c1C(=O)NC1CCc2ccc(C(=O)N3CCC4(CC3)CCN(c3ccncc3)C4)cc21 (stereo not shown) [IND_CC-295, 2,6-Dimethyl-N-[6-(2-pyridin-4-yl-2,8-diazaspiro[4.5]decane-8-carbonyl)-2,3-dihydro-1H-inden-1-yl]-benzamide]	96	106		
COc1ccc(C(=O)N(C)C2CCc3ccc(C(=O)N4CCC5(CC4)CCN(c4ccncc4)CC5)cc32)c(F)c1 (stereo not shown) [IND_CC-296, 2-Fluoro-4-methoxy-N-methyl-N-[6-(9-pyridin-4-yl-3,9-diazaspiro[5.5]undecane-3-carbonyl)-2,3-dihydro-1H-inden-1-yl]-benzamide]	59	103		
Cc1cc(OC(F)(F)F)ccc1C(=O)N(C)C1CCc2ccc(C(=O)N3CCC4(CC3)CCN(c3ccncc3)CC4)cc21 (stereo not shown) [IND_CC-299, N,2-Dimethyl-N-[6-(9-pyridin-4-yl-3,9-diazaspiro[5.5]undecane-3-carbonyl)-2,3-dihydro-1H-inden-1-yl]-4-(trifluoromethyloxy)-benzamide]	27	106		
CN(C(=O)c1cc(Cl)ccc1C(F)(F)F)C1CCc2ccc(C(=O)N3CCC4(CC3)CCN(c3ccncc3)CC4)cc21 (stereo not shown) [IND_CC-301, 5-Chloro-N-methyl-N-[6-(9-pyridin-4-yl-3,9-diazaspiro[5.5]undecane-3-carbonyl)-2,3-dihydro-1H-inden-1-yl]-2-(trifluoromethyl)-benzamide]	94	107		
O=C(NC1CCc2ccc(C(=O)N3CCC4(CC3)CCN(c3ccncc3)CC4)cc21)c1cc(Cl)ccc1C(F)(F)F (stereo not shown) [IND_CC-302, 5-Chloro-N-[6-(9-pyridin-4-yl-3,9-diazaspiro[5.5]undecane-3-carbonyl)-2,3-dihydro-1H-inden-1-yl]-2-(trifluoromethyl)-benzamide]	99	106		
